The test system of one test is TCC-SUP cells. The experiment in a line: End-point chemosensitivity assay, hematoporphyrin platinum derivatives, dark and irradiated (600–730 nm). Format: cell-based, human. The note with it: 1 μM concentration; hematoporphyrin-platinum series; bladder cancer cells TCC-SUP. From the text:
(§1) Data of the cytotoxic effect was obtained, for instance, on the human tumor cell lines TCC-SUP and J82. The effect of the compounds was investigated in the dark and under irradiation with light at a wavelength of 600–730 nm. Selected compounds are clearly more activ cytotoxically under irradiation. There is a synergism between the cytotoxic effect of the platinum component and the photodynamic principle.
(§2) To determine the antiproliferative activity of the new porphyrin ligands and the corresponding platinum complexes with different amine non-leaving groups two bladder cancer cell lines TCC-SUP and J82 were selected as in vitro models.
(§3) To discriminate between the cytotoxic and phototoxic effects all experiments were carried out in duplicate. The cells were seeded into microplates and the test compounds were added after 48 h. One batch of the microplates was kept in the dark until the end of the experiment, whereas the other microplates were irradiated 48 h after addition of the substances for 10 min with a light dose of 24 J·cm^−2, before the plates were reincubated in the dark.
(§4) End-Point Chemosensitivity Assay.
Hematoporphyrin Platinum Derivatives Type.

The subject of test [1] is bladder cancer cell lines TCC-SUP and J82. The experiment in a line: End-point chemosensitivity assay, tetraarylporphyrin platinum derivatives, dark and irradiated (600–730 nm). The test is classed as cell-based, human. The note with it: 1 μM concentration; tetraarylporphyrin-platinum series.
Excerpt: as §1, §2, §3, §4
Tetraarylporphyrin Platinum Derivatives Type.

In the case of `N.N.[Cl][Pt][Cl]` [cisplatin], the T/Ccorr. result in the test on TCC-SUP cells is listed as “approximately 2%”.

For “(+)-trans-1,2-Diaminocyclohexane[2-(4-{10,15,20-tris[4-(1,4,7,10-tetraoxaundecyl)phenyl]porphyrin-5-yl}phenoxy)malonato]platinum(II) [compound 29]”, the T/Ccorr. in test [1] is recorded as around 57%.

Values taken from US7087214B2, “Water-soluble porphyrin platinum compounds with high tumor selectivity and their use for the treatment of benign and malignant tumor diseases” (Zentaris GmbH, priority 2002, dated 2006).
